Source: patent US8048928B2, “Therapeutic agent for treating liver disease containing 2-amino-1,3-propanediol derivative as active ingredient, and method for treating liver disease” (Kyorin Pharmaceutical Co., Ltd., priority 2005, dated 2011)
Structures can show the parent of a compound that is named as a salt.

System: Con A-induced hepatitis model
Test: Con A-induced hepatitis model: liver-infiltrating cells counted with FACS Calibur
Format: in vivo, Male BALB/c mice
Description: Male BALB/c mice, aged 8 to 12 weeks, were purchased from Charles River, Japan. Concanavalin A (referred to as “Con A,” hereinafter) was dissolved in phosphate-buffered saline (PBS). 0.2 ml of this solution was intravenously administered to the animals to deliver 40 mg/kg of Con A. KRP-203 suspended in distilled water was orally administered at a dose of 0.1 mg/10 g body weight 24 hours before the administration of Con A. The animals were sacrificed 24 hours after the administration of Con A and the serum transaminase activity was measured. Also, the liver was perfused with 30 mL 0.1% EDTA-PBS to collect liver infiltrate (Eur. J. Immunol., 17: 37, 1987). To avoid contamination with lymphocytes in the periphery blood, the first 2.5 ml of the collected 0.1% EDTA-PBS was discarded. The collected cells were stained with anti-CD4 antibody, anti-CD8 antibody, anti-CD3 antibody, anti-CD45/B220 antibody, anti-CD11b antibody, anti-Ly-49C antibody and were counted with FACS Calibur.

[1] = KRP-203 1 mg/kg oral 24 h before Con A 40 mg/kg i.v., 24 h after Con A

NC(CO)(CO)CCc1ccc(Sc2cccc(OCc3ccccc3)c2)cc1Cl [KRP-203, 2-amino-2-[4-(3-benzyloxyphenylthio)-2-chlorophenyl]ethyl-1,3-propanediol hydrochloride]
Number of cells that infiltrated the liver: B220^+ [1]: 2.06 ± 0.21 ×10^5 | Number of cells that infiltrated the liver: CD3^+ NK− [1]: 2.29 ± 0.53 ×10^5 | Number of cells that infiltrated the liver: CD4^+ [1]: 0.93 ± 0.33 ×10^5 | Number of cells that infiltrated the liver: CD8^+ [1]: 2.53 ± 0.64 ×10^5 | Number of cells that infiltrated the liver: CD11b^+ [1]: 8.47 ± 2.75 ×10^5 | Number of cells that infiltrated the liver: NK^+ CD3− [1]: 0.40 ± 0.24 ×10^5 | Number of cells that infiltrated the liver: Total cells [1]: 16.3 ± 3.5 ×10^5 | Decrease of total number of infiltrated cells in the liver (group receiving KRP-203 (1 mg/kg) vs control): about 50%
